# From a melting point compilation (Tetko et al.; mined from patent text by program, amines drawn as free bases though some values may be those of a salt)
row,Structure (SMILES),melting point [°C]
1,CN(C)C(=Nc1ccccc1N1CCOCC1)N1CCCCC1,88 to 90
2,CSCCc1nc(OCC(F)(F)F)c(C#N)c(N2CCc3ccccc3CC2)n1,97 to 100
3,CC(C)(C)c1ccc2c(Cl)c3ccccc3c(C=O)c2c1,126 to 129
4,Cc1nccn1S(=O)(=O)c1c[nH]cn1,158 to 159
5,CN1C(=O)C(NC(=O)CCC2CCCCC2)N=C(c2ccccc2)c2cnccc21 (configuration not stated),170 to 173
6,CCCCNC(=O)NS(=O)(=O)c1ccccc1CCl,104 to 106
7,Cc1c[nH]c2c1C(=O)CC(c1cccs1)C2 (configuration not stated),195 to 196
8,Cc1cccc2c(-c3ccc(Br)cc3)nccc12,126 to 128
9,"O=C1Nc2c(O)cc(Cl)cc2C(C#CC2CC2)(C(F)(F)F)O1 (single isomer, unassigned; (-))",170 to 172
10,Cc1ccc(C=C2NC(=O)N(c3cc(F)ccc3F)C2=O)cc1,218 to 224
11,CC(=O)N(C)N(C)c1ccnc2c(NC(=O)c3c(Cl)cccc3Cl)cccc12,243 to 244
12,O=C1C(=O)N(c2ccc(Cl)cc2)C(=O)N1c1ccccc1,154
13,CC(C)OC(=O)Nc1ccc(Cl)c(C(=O)OC(C)C)c1,108 to 109
14,COC(=O)c1cn2c(C)c(C)sc2n1,180 to 181
15,Cc1cn2cccc(N[C@@H]3c4ccccc4C[C@H]3O)c2n1 (relative stereo),188 to 190
16,CCn1cc(C(=O)O)c(=O)cc1-c1c(Cl)cccc1Cl,200 to 201
17,NC(=O)OCC1COC(C(F)(F)Cl)(C(F)(F)Cl)O1 (configuration not stated),56 to 57
18,CC1(C)CCC(C)(C)c2cc(C(=O)COc3ccc(C(=O)O)cc3)ccc21,168 to 170
19,COc1cccc(NC(=O)NCc2cccc3c2C(=O)N(C2CCC(=O)NC2=O)C3=O)c1 (configuration not stated),160 to 162
20,CC(C)(C)OC(=O)NCC(O)c1ccsc1 (configuration not stated),103 to 105

row,Structure (SMILES),melting point [°C]
1,NCC1Cc2cc(Cl)c3[nH]c(=O)ccc3c2O1 (configuration not stated),> 300
2,CCOP(=O)(OCC)C(Nc1cnccn1)P(=O)(OCC)OCC,56 to 59
3,CCOP(=O)(CC(=O)Nc1cc2c(Nc3ccc(Cl)c(Cl)c3)ncnc2cn1)OCC,121 to 124
4,O=C(NCc1ccncc1)c1cccnc1Oc1cccnc1,142 to 144
5,NC(=O)/C=C1\CCc2c(Cl)cc(F)cc21,182 to 184
6,Cc1c(C)c2c(c(C)c1O)CCC(C)(C(=S)N1CCN(c3ccc(Cl)cc3)CC1)O2 (configuration not stated),154 to 155
7,CC(C)(C)n1nc(Cc2ccncc2)c(C(N)=O)c1N,125 to 127
8,CCOC(=O)CCn1ccn([C@H]2CCc3c(F)cc(F)cc3C2)c1=S,105 to 107
9,CCOC(=O)c1cn(C2CC2)c2nc(Cl)c(F)cc2c1=O,176 to 178
10,C=C(C)COc1cc(C)c(NC(C)=O)cc1C,128 to 132
11,COC1(c2cc(F)cc(Sc3cnc4c(c3)OCC(=O)N4C)c2)CCOCC1,127 to 128
12,O=C1CCC(CCN2CCN(c3ccccn3)CC2)CC1,104 to 106
13,CC=C(NC(=O)C1CC1(Cl)Cl)C(=O)O (configuration not stated),188 to 190
14,CON(C(=O)c1cn(C)nc1C(F)(F)F)C(CF)Cc1c(Cl)cc(Cl)cc1Cl (configuration not stated),131 to 133
15,CCCN(CC1CC1)C(=O)c1c2c(nn1C)N(c1c(C)cc(C)cc1Cl)CCC2,121 to 122
16,Cc1c(C)c([N+](=O)[O-])c(C)c2c1OC(C)(C)C2c1ccc(C(C)C)cc1 (configuration not stated),109 to 110
17,CC(=O)OCC(C(=O)OC(C)(C)C)C(=O)c1ccccc1 (configuration not stated),72 to 74
18,Nc1nc(NCCc2ccc(O)cc2)nc2nc(-c3ccco3)nn12,225 to 227
19,CCCCCCCCCCCCNc1nccc(NCCCO)n1,58 to 59
20,Clc1ccc2c(N[C@@H]3CCC[C@H](Nc4ccnc5cc(Cl)ccc45)C3)ccnc2c1,> 250

row,Structure (SMILES),melting point [°C]
1,Cn1c(C(F)(F)F)cc(=O)n(-c2cc(OCC(N)=O)c(Cl)cc2F)c1=O,104 to 106
2,CCCNC(=O)c1cc2ccc(OC)cc2n1CCNC(C)=O,127 to 128
3,COc1nc(NCCCN2CCOCC2)nc(OC)c1NC(=O)c1csc(Oc2cccc(C(C)(C)C)c2)n1,68
4,Cc1ccccc1C=C1CCn2c1nc1ccc(C#N)cc1c2=O,234 to 236
5,CSc1nnc2n1C=C(C)c1ccccc1C2,129 to 130
6,Cc1ccc(Cc2cnc(NCCCCc3ncc(Cl)cc3C)[nH]c2=O)cn1,140 to 141
7,CCNC(=O)C(c1ccccc1)c1ccccc1,87
8,CC1CCN(c2ccc([N+](=O)[O-])cc2C(=O)c2ccccc2Cl)CC1,84
9,Cc1cc(CO)c2c(N)c(C(N)=O)sc2n1,> 210
10,CCc1occc(=O)c1OCc1ccccc1,33 to 34
11,COC=C1C(=O)NC(=O)c2ccccc21,260 to 261
12,COC(=O)C#CC(=O)c1ccc2c(c1)OCO2,95 to 97
13,CC(C)(C)OC(=O)COc1ccc(C(=O)CN2CCN(c3ccncc3)CC2)cc1,103 to 104
14,CC(C)(C)c1ccc(N)cn1,61.5 to 62.7
15,CN1CC(CNN)CC2c3cccc4[nH]cc(c34)CC21 (configuration not stated),171 to 172
16,CC(C)(C)OC(=O)NC(Cc1ccccc1)C(=O)NC1N=C(c2ccccc2)c2ccccc2NC1=O (mixture of isomers),143 to 153
17,O=C(NCc1ccncc1)c1cc2ccnc(Cl)c2[nH]1,> 340
18,N#CCCN1CCCCC1=Nc1ccccc1N1CCOCC1,148
19,CC(C)NC(=O)N(Nc1cccc(Cl)c1Cl)C1=CCCN1,109 to 111

# Results, then the compound that gave them:
row,melting point [°C],Structure (SMILES)
1,242 to 244,O=C(c1ccccc1C(c1ccc(O)cc1)c1ccc(O)cc1)N1CCCCC1
2,110 to 113,CCCc1c(O)c(C(=O)O)cc(Cl)c1OCCCCCCc1cccc(O)c1O
3,111 to 113,CCOCCOc1c(C)cc(Oc2ccc3c(c2)C=C(C(=O)Nc2ccc(CN(C)C4CCOCC4)cc2)CCS3(=O)=O)cc1C
4,64 to 66,Cc1cc(F)ccc1-c1ccc(S(=O)(=O)N2c3ccccc3CC2C(=O)NCc2ccccc2[N+](=O)[O-])cc1 (configuration not stated)
5,131 to 132,CC(C)[C@H](N)C(=O)N[C@@H](Cc1ccccc1)C(O)[C@H](Cc1ccccc1)NC(=O)[C@@H](N)C(C)C
6,226 to 229,CC(=O)ONC(=N)c1ccc(-c2ccc(-c3ccc(C(=N)NOC(C)=O)cc3C)o2)nc1
7,76 to 80,CCCc1c(C(=O)N(C)Cc2ccc3c(Br)c(OCC#N)ccc3c2)cnn1-c1ccccc1
8,155 to 156,CC(=O)N(C)c1cccc2c1nc(-c1c(F)cccc1F)n2Cc1c(F)cccc1F
9,149 to 150,CC(=O)c1ccccc1-c1ccc(C(=O)N2Cc3ccc(C(=O)NCc4cccnc4)n3Cc3ccccc32)cc1
10,66 to 68,CCCc1c(OCCCSc2ccc(C(=O)OC)cn2)ccc(C(C)=O)c1O
11,96 to 99,Fc1ccc2nc(-c3ccccc3)cc(Cl)c2c1
12,128 to 131,CC(=O)Oc1ccc(-n2cc(C(=O)O)c(=O)cc2-c2ccc(N(C)C)cc2)cc1
13,249 to 250,CCc1nc2c(NC(=O)c3ccccc3)nc3ccccc3c2n1CCCCNS(C)(=O)=O
14,129 to 131,CCOC(=O)c1cc(C#Cc2ccccn2)c2ccccc2n1
15,> 300,Nc1ccc(Sc2c(O)c3c(=O)n(-c4ccccc4)c4ccccc4c3oc2=O)cc1
16,50.2 to 51.7,COC(=O)CCc1ccc(OCCc2nc(-c3ccccc3)oc2C)cc1
17,127 to 129,CN(C)C(=O)c1ccccc1OCC(=O)NC(C)(C)c1ccc(Cl)cc1
18,147,CC(C)c1nc(-c2ccc(F)cc2)c(C=O)c(C(C)C)c1CO
19,198 to 201,O=C(O)c1cccc(C=CC(=O)c2ccccc2)c1

row,melting point [°C],Structure (SMILES)
1,167 to 168,COC(=O)c1cc(C(=O)NCCCO)c2cc(Cc3ccc(F)cc3)cnc2c1O
2,80 to 85,COc1ccc(CSc2ccc([N+](=O)[O-])cc2CNCCc2ccccc2)cc1
3,185 to 186,CCCCCCCCCCCCS(=O)(=O)c1ccc2c(c1)C(=O)c1c(c(O)c3ccccc3c1O)C2=O
4,137 to 140,CCOC(=O)c1c(Nc2cc(F)ccc2[N+](=O)[O-])sc2ccccc12
5,138 to 142,COc1ccc(S(=O)(=O)n2c(CCCC(=O)O)cc3cc(Cl)ccc32)cc1
6,176 to 179,COc1cccc2c(Sc3nc(C)c(CC(=O)O)s3)cc(C(=O)O)nc12
7,176 to 178,Clc1ccccc1-c1cc(-c2ccccc2)c(-c2ccccc2Cl)nn1
8,182 to 184,CCOC(=O)N1CCC(=C2c3ccc(Cl)cc3CCc3c(On4nnc5ccccc54)ccnc32)CC1
9,135 to 137,Cc1c(CN2C(=O)c3ccccc3C2=O)cccc1C(F)(F)C(F)(F)c1ccccc1
10,58 to 62,COc1cc(CN[C@@H](CC(C)C)C(=O)N2CCN(C(c3ccc(F)cc3)c3ccc(F)cc3)CC2)cc(OC)c1OC
11,104 to 106,CCOC(=O)COc1ccc(C=NCCN=Cc2ccc(OCC(=O)OCC)cc2O)c(O)c1
12,186 to 188,Cc1c(C(=O)Nc2ccc(N3CCC(c4ccccc4)CC3)c(C#N)c2)cnn1-c1ccc(Cl)cc1
13,70 to 72,CCCc1cc(-c2noc3cc(OC)ccc23)ccc1OC
14,48 to 49,CCc1cc(-c2ccc(F)cc2)c(O)cc1OCCCOc1cccc(Oc2ccccc2C(=O)O)c1CC(C)C
15,210 to 212,COc1ccc(-c2coc3cc(O)ccc3c2=O)c(O)c1
16,221 to 222,O=C(Cc1c(F)cccc1C(=O)O)Nc1cccc(/C=C/c2nc(C3CCC3)cs2)c1
17,58,O=c1[nH]c(=O)n(C2CC(F)C(COC(c3ccccc3)(c3ccccc3)c3ccccc3)O2)cc1C(I)=CI (configuration not stated)
18,165 to 168,CC(CNc1ccc(C(=O)O)cc1)Oc1ccc(Cl)c2ccccc12 (configuration not stated)
19,> 260,COc1cc(OC)c2[nH]c3c(C(=O)Nc4ccc(CCN(C)Cc5ccc(OC)c(OC)c5)cc4)cccc3c(=O)c2c1
